# Measured values as given in publication PMC5127577, “Biochemical Characterization of Glutamate Racemase—A New Candidate Drug Target against Burkholderia cenocepacia Infections” (PLoS ONE, 2016).
# Like-named read-outs stand apart in the source and are kept apart here.
# Key:
# [1] = target: T1, B. cenocepacia J2315 glutamate racemase (BcGR) (Burkholderia cenocepacia, UniProt B4EEM8); test: BcGR enzymatic activity inhibition, spectrophotometric coupled assay (L-glutamate dehydrogenase/diaphorase); conditions: for BcGR inhibition in screening: compound 100 μM; for inhibitory effect in the presence of EDTA: excess of EDTA; for mode of inhibition: steady state kinetics, D-Glu 5–50 mM, compound 0–100 μM
# T1 sequence (B4EEM8 1-285): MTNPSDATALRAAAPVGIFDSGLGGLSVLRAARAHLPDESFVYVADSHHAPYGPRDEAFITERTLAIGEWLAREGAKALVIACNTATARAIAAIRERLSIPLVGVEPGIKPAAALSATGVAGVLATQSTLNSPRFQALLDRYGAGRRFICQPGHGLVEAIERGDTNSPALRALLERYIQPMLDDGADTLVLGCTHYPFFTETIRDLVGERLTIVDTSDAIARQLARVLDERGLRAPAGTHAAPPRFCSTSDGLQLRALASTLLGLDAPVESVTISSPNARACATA
# [2] = test system: B. cenocepacia J2315; test: Minimal Inhibitory Concentration, 2-fold microdilution, resazurin method; type: cell-based, Burkholderia cenocepacia J2315; conditions: planktonic cells, 8 to 1024 μg/ml tested, two days 37°C
# [3] = target: GR from B. subtilis; conditions: cited from earlier work
# [4] = target: GR from B. anthracis; conditions: cited from earlier work
Compound,"IC50 ([1]; 20 mM D-Glu, 37°C, pH 8.0) [µM]",BcGR inhibition in screening ([1]; 20 mM D-Glu),inhibitory effect in the presence of EDTA [1],mode of inhibition [1],MIC (concentration necessary to inhibit growth) [2],Ki [3] [µM],also measured
"bis(2,4-bis(trichloromethyl)-1,3,5-triazapentadienato)-zinc(II) complex [(1)]",35.3 ± 4.9,almost completely inhibit,could be observed also in the presence of EDTA,non-competitive,at least 512 μg/ml,–,–
"N[C@H](CC(Cc1ccccc1)C(=O)O)C(=O)O (stereo partly drawn) [(2R)-2-amino-4-benzylpentanedioic, (2R)-2-amino-4-benzylpentanedioic acid, reference compound]",–,did not show any inhibition,–,–,–,–,–
"O=S(=O)(O)c1nc2ccccc2[nH]1 [1-H-benzimidazole-2-sulfonic acid, reference compound]",–,did not show any inhibition,–,–,–,9,–
"O=S(=O)(O)c1ccc(O)c(S(=O)(=O)O)c1 [4-hydroxybenzene-1,3-disulfonate, reference compound]",–,did not show any inhibition,–,–,–,–,Ki [4]: 59 µM
O=C(O)c1cccc(C(=O)O)n1 [dipicolinic acid],–,–,–,–,–,2700,IC50 [1]: 150 ± 30 µM; Ki ([4]; non-competitive inhibitor): 92 µM
"tris(2,4-bis(trichloromethyl)-1,3,5-triazapentadienate)-Mn(III) complex [(2)]",10 ± 0.8,almost completely inhibit,could be observed also in the presence of EDTA,non-competitive,at least 512 μg/ml,–,–
